Results published in US11008290B2, “Halogenated quinoline derivatives as antimicrobial agents” (University of Florida Research Foundation, Incorporated, priority 2015, dated 2021).
Converted amounts (≈) assume the structure as drawn. “And” between values parts separate entries of the source, which are not always exact repeats. Equal values may be shown once. Read-outs that look alike come from different tables or passages of the source. Marks after values point to notes of the source that are not given here.

Legend:
S. aureus = assay: MIC, antibacterial profile of broxyquinoline and HQ-1 (FIG. 2A); type: cell-based; conditions: Staphylococcus aureus
A. baumannii = assay: as above; type: cell-based, Acinetobacter baumannii
S. epidermidis = assay: as above; type: cell-based; conditions: Staphylococcus epidermidis
[1] = test system: MRSE (ATCC 35984) planktonic cells and biofilms; assay: Calgary Biofilm Device (CBD) MBC/MBEC determination; type: cell-based, Staphylococcus epidermidis; conditions: for MBC: planktonic killing, first value of cell
Method: (§1) Biofilm eradication experiments were performed using the Calgary Biofilm Device to determine MBC/MBEC values for various compounds of interest (Innovotech, product code: 19111). The Calgary device (96-well plate with lid containing 96 total pegs to establish biofilms; 1 peg/well) was inoculated with 125 μL of a mid-log phase culture diluted 1,000-fold in tryptic soy broth with 0.5% glucose (TSBG) to establish bacterial biofilms after incubation at 37° C. for 24 hours. The lid of the Calgary device was then removed, washed and transferred to another 96-well plate containing 2-fold serial dilutions of the test compounds (the “challenge plate”). The total volume of media with compound in each well in the challenge plate was 150 μL. The Calgary device was then incubated at 37° C. for 24 hours. The lid was then removed from the challenge plate and MBC/MBEC values were determined using different final assays. […] The MBC values were determined as the concentration giving a lack of visible bacterial growth (e.g., turbidity). For determination of MBEC values, the Calgary device lid (with attached pegs/treated biofilms) was transferred to a new 96-well plate containing 150 μL of fresh TSBG media in each well and incubated for 24 hours at 37° C. to allow viable biofilms to grow and disperse resulting in turbidity after the incubation period. […] In select experiments, treated pegs from the Calgary device were removed from lead biofilm eradicators after final incubation, sonicated for 30 minutes in PBS and plated out to determine biofilm cell killing (e.g., colony forming unit per milliliter, CFU/mL).

[2] = test system: vancomycin-resistant Enterococcus faecium (VRE, ATCC 700221); assay: Minimum inhibitory concentration (MIC) susceptibility assay, broth microdilution; type: cell-based; conditions: for MIC: read-out: VRE MIC
Method: (§2) The minimum inhibitory concentration (MIC) for each compound was determined by the broth microdilution method as recommended by the Clinical and Laboratory Standards Institute (CLSI). In a 96-well plate, eleven two-fold serial dilutions of each compound were made in a final volume of 100 μL Luria Broth. Each well was inoculated with ˜10^5 bacterial cells at the initial time of incubation, prepared from a fresh log phase culture (OD600 of 0.5 to 1.0 depending on bacterial strain). […] The concentration range tested for each compound during this study was 0.10 to 100 μM. DMSO served as the vehicle and negative control in each microdilution MIC assay. DMSO was serially diluted with a top concentration of 1% v/v. Bacterial strains used: methicillin-resistant Staphylococcus aureus-2 (MRSA-2; clinical isolate from Shands Hospital in Gainesville, Fla.), methicillin-resistant Staphylococcus epidermidis (MRSE; ATCC 35984), vancomycin-resistant Enterococcus faecium (VRE, ATCC 700221).

[3] = test system: methicillin-resistant Staphylococcus epidermidis (MRSE; ATCC 35984); assay: as above; type: cell-based; conditions: for MIC: read-out: MRSE MIC
Method: as §2

MRSA BAA-1707 = assay: Calgary Biofilm Device (CBD) MBC/MBEC determination; type: cell-based, Staphylococcus aureus; conditions: for MBC: planktonic killing, first value of cell, read-out: MRSA BAA-1707 MBC
Method: as §1

[4] = test system: MRSA-2 planktonic cells and biofilms; assay: as above; type: cell-based, Staphylococcus aureus; conditions: CBD; for MBC: planktonic killing, first value of MBC/MBEC cell
Method: as §1

human red blood cells = assay: Hemolysis assay; type: cell-based
Method: Freshly drawn human red blood cells (hRBC with ethylenediaminetetraacetic acid (EDTA) as an anticoagulant) were washed with Tris-buffered saline (0.01M Tris-base, 0.155M sodium chloride (NaCl), pH 7.2) and centrifuged for 5 minutes at 3500 rpm. The washing was repeated three times with the buffer. In 96-well plate, the test compounds were added to the buffer. […] The plate was then incubated for 1 hour at 37° C. After incubation, the plate is centrifuged for 5 minutes at 3500 rpm. Then 80 μL of the supernatant were transferred to another 96-well plate and the Optical Density (OD) was read at 405 nm. […] The percent of hemolysis was calculated as (OD405 of the compound-OD405 DMSO)/(OD405 Triton X-OD405 buffer).

[5] = test system: VRE (ATCC 700221) planktonic cells and biofilms; assay: Calgary Biofilm Device (CBD) MBC/MBEC determination; type: cell-based, Enterococcus faecium; conditions: CBD; for MBC: planktonic killing, first value of cell
Method: as §1

MRSA-2 = assay: Mechanistic investigations with metal(II)-cations (MIC assay with 200 μM metal salt); type: cell-based, Staphylococcus aureus; conditions: MRSA-2
Method: as §2

[6] = test system: MRSA-2, MRSE 35984, VRE 700221; assay: MIC assays, range stated over the three drug-resistant pathogens; type: cell-based; conditions: range over MRSA-2, MRSE, read-out: MIC against these drug-resistant pathogens
Method: as §2

[7] = test system: methicillin-resistant Staphylococcus aureus-2 (MRSA-2; clinical isolate); assay: Minimum inhibitory concentration (MIC) susceptibility assay, broth microdilution; type: cell-based; conditions: Staphylococcus, MRSA
Method: as §2

[8] = Staphylococcus epidermidis, Table 3, CBD, read-out: MRSE MBC
[9] = Table 3, at least three independent experiments, read-out: MRSA-2 MIC
[10] = Staphylococcus epidermidis, Table 3
[11] = Staphylococcus aureus, Table 4, CBD
[12] = Staphylococcus aureus, MRSA, Table 3, read-out: MRSA-2 MBC
[13] = Enterococcus, Table 3, footnote c = lowest concentration tested, read-out: VRE MBC

Oc1c(Br)cc(Br)c2cccnc12 [Broxyquinoline]
MIC (S. aureus): 12.5 µM and 4 µg/mL | MIC (A. baumannii; Acinetobacter baumannii, read-out: MIC): 12.5 µM and 4 µg/mL | MIC (S. epidermidis): 12.5 µM and 4 µg/mL

O=Cc1ccc2c(Br)cc(Br)c(O)c2n1 [Compound 2, 5,7-dibromo-8-hydroxyquinoline-2-carbaldehyde]
melting point: 154 to 156 °C

Cc1ccc2c(Br)cc(Br)c(O)c2n1 [HQ-1, reference compound]
MRSE ATCC 35984 MBEC ([1]; Table 2, biofilm eradication, CBD, second value of cell): 93.8 µM | MBC ([1]; Table 2, CBD, read-out: MRSE ATCC 35984 MBC): 31.3 µM (≈ 9.92 µg/mL) | MRSE MBEC ([1]; Table 3, biofilm eradication, CBD, second value of cell): 93.8 µM | MBC ([1]; Table 3, CBD, read-out: MRSE MBC): 31.3 µM (≈ 9.92 µg/mL) | VRE MIC ([2]; Table 3): 2.35^a μM | MIC ([3]; Table 2, ATCC 35984): 0.39 µM (≈ 0.124 µg/mL) | MRSE MIC ([3]; Table 3): 0.30^a μM | MRSA BAA-1707 MBEC (MRSA BAA-1707; Table 4, biofilm eradication, CBD, second value of cell): 46.9 µM | MBC (MRSA BAA-1707; Table 4, CBD): 62.5 µM (≈ 19.8 µg/mL) | MRSA-2 Clinical Isolate MBEC ([4]; Table 2, biofilm eradication, second value of MBC/MBEC cell): 188 µM | MBC ([4]; Table 2, read-out: MRSA-2 Clinical Isolate MBC): 23.5 µM (≈ 7.45 µg/mL) | MRSA-2 MBEC ([4]; Table 3, biofilm eradication, second value of MBC/MBEC cell): 188 µM | MBC ([4]; Table 3, read-out: MRSA-2 MBC): 23.5 µM (≈ 7.45 µg/mL) | % Haemolysis at 200 μM (human red blood cells; Table 2, human red blood cells, 1 hour at 37° C.): ≤1% | % Haemolysis at 200 μM (human red blood cells; Table 3, human red blood cells): ≤1% | VRE ATCC 700221 MBEC ([5]; Table 2, biofilm eradication, second value of cell): 1.5 µM | MBC ([5]; Table 2, read-out: VRE ATCC 700221 MBC): 2.0 µM (≈ 0.634 µg/mL) | VRE MBEC ([5]; Table 3, biofilm eradication, second value of cell, footnote c = lowest concentration tested): 1.5 µM | MBC ([5]; Table 3, footnote c = lowest concentration tested, read-out: VRE MBC): 2.0 µM (≈ 0.634 µg/mL) | MIC w/Fe^2+ (MRSA-2; 200 μM ammonium iron (II) sulfate hexahydrate): >100^b μM and >100^c μM | MIC w/Cu^2+ (MRSA-2; 200 μM copper (II) sulfate): 25^b μM and 25^c μM | MIC (MRSA-2; 200 μM magnesium (II) sulfate, read-out: MIC w/Mg^2+): 1.56 µM | MIC w/Zn^2+ (MRSA-2; 200 μM zinc (II) chloride): 0.15^a,b μM and 0.1^a,c μM | MIC (A. baumannii): 32 µg/mL | MIC (A. baumannii; read-out: MIC): 100 µM

Cc1c(Br)cc(NCc2ccc3c(Br)cc(Br)c(O)c3n2)cc1Br [HQ-7]
MBC ([1]; Staphylococcus epidermidis, Table 2, CBD, read-out: MRSE ATCC 35984 MBC): 250 µM (≈ 145 µg/mL) | MIC [6]: 9.38 to 75 µM (≈ 5.44 to 43.5 µg/mL) | MIC ([7]; Table 2, 2 to 6 independent experiments, read-out: MRSA-2 MIC): 18.8 µM (≈ 10.9 µg/mL) | MIC ([7]; read-out: MIC): > 100 µM | MIC ([2]; Table 2, ATCC 700221): 75 µM (≈ 43.5 µg/mL) | MIC ([3]; Staphylococcus epidermidis, Table 2, ATCC 35984): 9.38 µM (≈ 5.44 µg/mL) | MBC ([4]; Staphylococcus aureus, MRSA, Table 2, read-out: MRSA-2 Clinical Isolate MBC): 500 µM (≈ 290 µg/mL) | % Haemolysis at 200 μM (human red blood cells; human, 1 h, pH 7.2): ≤1% | MBC ([5]; Enterococcus, Table 2, read-out: VRE ATCC 700221 MBC): 125 µM (≈ 72.5 µg/mL) | MIC (MRSA-2; Staphylococcus aureus, 200 μM ammonium iron (II) sulfate hexahydrate, read-out: MIC w/Fe^2+): > 100 µM | MIC (MRSA-2; Staphylococcus aureus, 200 μM copper (II) sulfate, read-out: MIC w/Cu^2+): > 100 µM | MIC (MRSA-2; Staphylococcus aureus, 200 μM magnesium (II) sulfate, read-out: MIC w/Mg^2+): > 100 µM | MIC (MRSA-2; Staphylococcus aureus, 200 μM zinc (II) chloride, read-out: MIC w/Zn^2+): > 100 µM

N#Cc1ccc2c(Br)cc(Br)c(O)c2n1 [HQ-8, 5,7-dibromo-8-hydroxyquinoline-2-carbonitrile]
melting point: 172 to 174 °C

OCc1ccc2c(Br)cc(Br)c(O)c2n1 [HQ-11, 5,7-dibromo-2-(hydroxymethyl)quinolin-8-ol]
melting point: 131 to 133 °C

CC(O)c1ccc2c(Br)cc(Br)c(O)c2n1 (stereo not shown) [HQ-13, 5,7-dibromo-2-(1-hydroxyethyl)-8-hydroxyquinoline]
melting point: 114 to 116 °C

N=C(N)c1ccc2c(Br)cc(Br)c(O)c2n1 [HQ-14, 5,7-dibromo-8-hydroxyquinoline-2-carboximidamide]
melting point: 172 to 174 °C

Oc1c(Br)cc(Br)c2ccc(CNc3ccc(F)cc3)nc12 [RA-HQ-12]
MBEC:MBC ratio ([1]; MRSE 35984, CBD): ~1 | MBC [1, 8]: 3.9 µM (≈ 1.66 µg/mL) | MIC [7, 9]: 0.39 µM (≈ 0.166 µg/mL) | MIC ([2]; Table 3): 0.78 µM (≈ 0.332 µg/mL) | MIC [3, 10]: 0.39 µM (≈ 0.166 µg/mL) | fold more potent than HQ-1 (MBEC) (MRSA BAA-1707; MRSA BAA-1707): 6 fold | MBC (MRSA BAA-1707; [11]): 15.6 µM (≈ 6.65 µg/mL) | MBC [4, 12]: 31.3 µM (≈ 13.3 µg/mL) | % Haemolysis at 200 μM (human red blood cells; human, 1 h, pH 7.2): ≤1% | MBC [5, 13]: 1 µM (≈ 0.426 µg/mL)

Oc1c(Br)cc(Br)c2ccc(CNc3ccccc3Br)nc12 [RA-HQ-16]
MBC [1, 8]: 46.9 µM (≈ 22.8 µg/mL) | MIC [7, 9]: 1.56 µM (≈ 0.76 µg/mL) | MIC ([2]; Table 3): 0.78 µM (≈ 0.38 µg/mL) | MIC [3, 10]: 0.2 µM (≈ 0.0974 µg/mL) | MBC (MRSA BAA-1707; [11]): 93.8 µM (≈ 45.7 µg/mL) | MBC [4, 12]: 188 µM (≈ 91.6 µg/mL) | % Haemolysis at 200 μM (human red blood cells; human, 1 h, pH 7.2): ≤1% | MBC [5, 13]: 7.8 µM (≈ 3.8 µg/mL)
